pIC50: −log10 of the molar value. Counter-ions that a name gives are not always drawn. Like-named read-outs stand apart in the source and are kept apart here.

Results on 3 molecules are retold here after patent US20230105108A1, “COMPOUNDS FOR THE TREATMENT OF BACTERIAL INFECTIONS AND POTENTIATION OF ANTIBIOTICS” (GEORGIA STATE UNIVERSITY RESEARCH FOUNDATION, INC., priority 2019, published 2023).

Data set [1] has as its system NDM-1 expressing E. coli strain. Put plainly: microbe, parasite or virus in culture. The following applies: for Sensitization fold with 5 μg/ml MD-124: NDM-1 expressing E. coli towards the antibiotic. It counts as cell-based.
Data set [2] relates to mcr-1 over-expressing E. coli strains. Put plainly: microbe, parasite or virus in culture. The following applies: for MIC: Escherichia coli; for Sensitization fold with 5 μg/ml MD-124: mcr-1 over-expression E. coli strain towards the antibiotic. Format: cell-based.
The subject of the next data set is MRSA (ATCC 33592). Nature of the data set: MIC determination and sensitization fold on MRSA. It counts as cell-based, methicillin-resistant Staphylococcus aureus.
For data set [3], the system named is A. baumannii (ATCC 17978). Nature of the data set: MIC, sensitization fold and FIC index on A. baumannii. It counts as cell-based. The following applies: for Sensitization fold with 5 μg/ml MD-124: A. baumannii towards the antibiotic.
A further data set deals with E. coli (ATCC 25922). Put plainly: MIC determination, sensitization fold and FIC index on E. coli. Format: cell-based. The following applies: for MIC: Escherichia coli. Summed up:
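E. coli in cation-adjusted Mueller Hinton II, 5×10^5 CFU/ml, 24 h at 37 °C shaking; rifampicin two-fold serial dilutions with or without fixed sensitizer (10 μM).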

A further data set deals with A. baumannii. Put plainly: MIC of rifampicin on A. baumannii with bacterial sensitizer Compound D. It counts as cell-based. The conditions noted are these: Acinetobacter baumannii; antibiotic alone; read-out: minimum inhibitory concentration (MIC) on A. baumannii. The protocol:
Bacteria were cultured with the antibiotic at various concentrations in the presence or absence of bacterial sensitizer, Compound D, for 24 hours at 37° C.

The next data set concerns K. pneumoniae (43816). Nature of the data set: MIC, sensitization fold and FIC index on K. pneumoniae. It counts as cell-based.
In a further data set the test system is B. subtilis. Put plainly: MIC determination and sensitization fold on B. subtilis. Format: cell-based.
The next data set concerns MRSA and B. subtilis. Put plainly: Composition of mixed MRSA and B. subtilis under antibiotic pressure. Format: cell-based. The conditions noted are these: 8 ng/ml trovafloxacin and 1.5 μg/ml MD-108. The protocol:
(§1) FIG. 11 contains graphs showing that MD-108 can change the composition between MRSA and E. coli (Panel A) or MRSA and B. subtilis (Panel B) when the bacteria strains are under the same antibiotic pressure.
(§2) As a proof of concept, the relative ratio of E. coli and MRSA or B. subtilis and MRSA was measured with and without MD-108 (FIGS. 11A and B). […] When supplied with 1.5 μg/ml MD-108 and 8 ng/ml trovafloxacin, the MRSA inhibition was achieved, leaving E. coli as the dominant species (89% of the bacteria population).

Data set [4] in a line: Cytotoxicity on mammalian cells (CCK-8), HEK293. Format: cell-based. The conditions noted are these: human, HEK293 cells; HEK293 cell line; 24 h. Summed up: (§3)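 Cells seeded a day ahead to ~80% confluency, exposed to varied compound concentrations for 24 h at 37° C, 5% CO2. CCK-8 added for a further 2 h and OD 450 nm read; viability expressed as percent of untreated control.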

The subject of another data set is HEK293 cells. Put plainly: Cytotoxicity on mammalian cells (CCK-8), HEK293. It counts as cell-based. The conditions noted are these: Homo sapiens, HEK293. Summed up: as §3
Data set [5] is described as follows: Cytotoxicity on mammalian cells (CCK-8), NIH3T3. The following applies: mouse, NIH3T3 cells, 3T3 cell line. It counts as cell-based. Summed up:
as §3

For another data set, the system named is M. smegmatis. Put plainly: MIC on mycobacteria. The conditions noted are these: Mycolicibacterium smegmatis, read-out: MIC on mycobacteria. Format: cell-based, Mycobacterium smegmatis.
Data set [6] is described as follows: Cytotoxicity in H9c2 cells (CCK-8). It counts as cell-based. The conditions noted are these: rat, H9c2 cells; H9c2 cell line. Summed up: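 H9c2 cells were grown in DMEM with 10% FBS, seeded the day before, and exposed to a range of di-amidine concentrations for 24 h at 37 °C, 5% CO2. Viability was read by CCK-8 after 3 h at 37 °C as absorbance at 450 nm.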
The next data set has as its system MRSA and E. coli. Nature of the data set: Composition of mixed MRSA and E. coli under antibiotic pressure. Format: cell-based. The conditions noted are these: 1.5 μg/ml MD-108 and 8 ng/ml trovafloxacin. Here is the method: as §1, §2
Another data set relates to E. coli expressing mcr-1. Nature of the data set: Ex vivo skin burn infection model, mcr-1 positive E. coli. The following applies: human skin burn, hypromellose gel; 3‰ (w/w). The protocol:
To achieve topical application, compounds were formulated as hypromellose gel. […] After that, skin was loaded with hypromellose gel with different antibiotics and cultured at 37° C. for 24 hours. After 24 hours incubation, the skin sample was homogenized and the supernatants were serially diluted and plated on agar plates, from which bacterial counts on the skin was calculated. […] 1‰ polymyxin B hypromellose gel was used as positive control.

In the next data set the test system is E. coli. Nature of the data set: Lysozyme assay (outer membrane disruption). Format: cell-based. The following applies: 50 μg/ml lysozyme, 25 μg/ml sensitizer, 10 min. The protocol:
Lysozyme assay to evaluate the disruption of Gram-negative bacteria out membrane by bacterial sensitizers. Lysozyme assay was performed based on literature reported method. E. coli was cultured in Mueller Hinton II cation-adjusted broth for overnight, centrifuged at 3000 g for 10 min, washed with HEPES buffer (pH=7.2) and then centrifuged again to obtain bacteria pallet. The pallet was then gently resuspended in HEPES buffer with 5 mM NaCN to obtain an E. coli suspension with OD600 between 0.8˜1.0. On a 96-well plate, each well was supplied with 100 μl lysozyme solution (100 μg/ml) containing 50 or 100 μg/ml bacterial sensitizers in HEPES buffer. To each well was added 100 μl E. coli suspension. The final concentration of lysozyme was 50 μg/ml. The plate was incubated at room temperature for 10 min and the OD600 was recorded. E. coli was also incubated with bacterial sensitizers in the absence of lysozyme to test if bacterial sensitizers would directly induce bacterial lysis. E. coli that was incubated with lysozyme alone or E. coli without any treatment were also used as negative control.

Setting [7] is: mcr-1 over-expression E. coli strain (MIC of polymyxin B 30 μg/ml).
Setting [8] is: E. coli towards the antibiotic, MD-124 5 μg/ml.

For `CO[C@H]1/C=C/O[C@@]2(C)Oc3c(C)c(O)c4c(O)c(c(/C=N/N5CCN(C)CC5)c(O)c4c3C2=O)NC(=O)/C(C)=C\C=C\[C@H](C)[C@H](O)[C@@H](C)[C@@H](O)[C@@H](C)[C@H](OC(C)=O)[C@@H]1C` [Rifampicin], the MIC in data set [1] (Escherichia coli, read-out: MIC of rifampicin with 10 μg/ml MD-124, NDM-1 expressing E. coli) was 0.012 µg/mL; in [2] (mcr-1 over-expression E. coli strain (MIC of polymyxin B 30 μg/ml), read-out: MIC of AB only), 5 µg/mL; in [2] (read-out: MIC of AB with 5 μg/ml MD-124, mcr-1 over-expression E. coli strain (MIC of polymyxin B 30 μg/ml)), no more than 0.2 µg/mL; in data set [2] (strain mcr-1 A, read-out: MIC of Rif only), 5 µg/mL; in data set [2] (strain mcr-1 B, read-out: MIC of Rif only) it was 5 µg/mL; in data set [3] (Acinetobacter baumannii, ATCC17978, A. baumannii, checkerboard assay, read-out: MIC of rifampicin with 7 pg/ml of the sensitizer (MD-124)), 0.01 µg/mL. Also, the MIC in the data set on E. coli (ATCC 25922) (ATCC25922, E. coli, with ~10 μg/ml MD-124, read-out: MIC of rifampicin (checkerboard assay)) was 0.0006 µg/mL; with A. baumannii it was 5 µg/mL. The “FIC index between MD-124 and antibiotic” value in [1] (NDM-1 expressing E. coli) is 0.09; in [2] (mcr-1 expressing E. coli), 0.37; in data set [3] (A. baumannii, checkerboard assay), 0.14; with K. pneumoniae (43816) (K. pneumoniae), 0.15. The “Sensitization fold with 5 μg/ml MD-124” value is 516 fold in data set [1], 32 fold in [2], 128 fold in data set [3] and 252 fold with K. pneumoniae (43816) (K. pneumoniae towards the antibiotic). The “MIC of AB with 5 μg/ml MD-124” value in data set [2] (setting [7]) came out at 0.16 µg/mL; in the data set on K. pneumoniae (43816) (K. pneumoniae), 0.016 µg/mL. In addition, in the data set on MRSA (ATCC 33592) (MRSA towards the antibiotic), the “sensitization fold with 2.7 μg/ml DB2560” value stood at 32 fold. The Sensitization fold with E. coli (ATCC 25922) (setting [8]) turned out to be 516 fold. Also, the “fractional inhibitory concentration (FIC) index between MD-124 and antibiotic” value in the data set with E. coli (ATCC 25922) (E. coli, checkerboard assay) turned out to be 0.09. Besides, the “FIC index between DB2560 and antibiotic” value with B. subtilis (B. subtilis) amounted to 0.11. In addition, the “MIC of antibiotic in the presence of 5.5 μg/ml of DB2560” value with B. subtilis (B. subtilis) was determined as 0.037 µg/mL. Also, in the data set with B. subtilis (B. subtilis towards the antibiotic), the “sensitization fold with 5.5 μg/ml DB2560” value came to 256 fold.

As to `Cc1cc(CCc2ccc(C(=N)N)cc2)cc(CCc2ccc(C(=N)N)cc2)c1` [MD-108, 4,4′-((5-methyl-1,3-phenylene)bis(ethane-2,1-diyl))dibenzimidamide dihydrochloride], the Sensitization fold with MRSA (ATCC 33592) (MRSA, rifampicin, compound at 3 μM) is recorded as 16-fold at 3 μM; in the data set on E. coli (ATCC 25922) (10 μM compound, rifampicin as the antibiotic (Table 6)) it was 16 fold; with E. coli (ATCC 25922) (E. coli, rifampicin, compound at 10 μM) it was 16-fold at 10 μM; in the data set with E. coli (ATCC 25922) (E. coli, rifampicin, compound at 25 μM) it was 32-fold at 25 μM;; in the data set on B. subtilis (B. subtilis, erythromycin, compound at 6 μM) it was 32-fold at 6 μM. Besides, the MIC was 100 µM in the data set on E. coli (ATCC 25922) (ATCC25922, 24 h); 6 to 12 µM in the data set on M. smegmatis; 25 µM in the data set on B. subtilis (Bacillus subtilis, 24 h, B. subtilis, compound alone, read-out: MIC). Also, the “B. subtilis share of the composition” value in the data set with MRSA and B. subtilis came to 99.5%. The values for the half-maximal cytotoxic concentration (CC50) at 24 h in data set [4], in [5] and in data set [6] were 50 µM, 50 µM and 12.5 µM, respectively. In addition, the negative-log IC50 (pIC50) (commonly the IC50 on a negative log10 scale, so that one unit is a factor of ten) in the data set on HEK293 cells is 4.30. In the data set with MRSA and E. coli, the “E. coli share of the bacteria population” value was 89%.

Take Polymyxin B: the “MIC of AB with 5 μg/ml MD-124” value in data set [1] (NDM-1 expressing E. coli) turned out to be 0.32 µg/mL; in data set [2] (setting [7]), 1 µg/mL; in data set [3] (A. baumannii), 0.04 µg/mL. Moreover, the results for the “Sensitization fold with 5 μg/ml MD-124” value in data set [1], in [2] and in data set [3] were 8 fold, 30 fold and 4 fold, respectively. Moreover, the “MFC of AB only” value in data set [1] (NDM-1 expressing E. coli, antibiotic alone) is 2.5 µg/mL; in [3] (A. baumannii, antibiotic alone), 1.6 µg/mL. Also, the figures for the “MIC of Rif polymyxin B” value in data set [2] (strain mcr-1 A) and in [2] (strain mcr-1 B) were 10 µg/mL and 30 µg/mL, respectively. The “MIC of AB only” value in the data set on E. coli (ATCC 25922) (E. coli (wild type), antibiotic alone) is 1.2 µg/mL. In addition, in the data set with E. coli (ATCC 25922) (setting [8]), the Sensitization fold is recorded as 32 fold. Moreover, the “MIC of AB with MD-124” value in the data set on E. coli (ATCC 25922) (E. coli, MD-124 concentration 5 μg/ml) stood at 0.04 µg/mL. Moreover, the “effect on bacterial load as compared with vehicle group” value in the data set with E. coli expressing mcr-1 is on record as “only had minor effects”. Also, the “bacterial lysis by lysozyme in the presence of sensitizer” value in the data set with E. coli is recorded as “led to bacterial lysis”.
